The text below walks through data of patent US6281354A, “Analogs of duocarmycin and cc-1065” (The Scripps Research Institute, priority 1999, dated 2001).

Series [1] concerns duplex DNA (w794, w836, c988, c820, c1346). The class given is biochemical, SV40. The settings on record: for sequence preference at the alkylation site: consensus alkylation sequence.
The test system of the next series is w836 DNA. In words: DNA alkylation sites and relative rates within the six-base A sequence (5'-AAAAAA) of w836 DNA. The series is classed as biochemical, SV40. The settings on record: for alkylated adenines within six-base A-rich sequence of w836 DNA: 5'-AAAAAA.
The next series has as its system w794 DNA. In words: DNA alkylation (thermal strand cleavage, PAGE) within w794 DNA. The settings on record: for less efficient DNA alkylation than 1: natural enantiomers, 25° C., 24 h. The series is classed as biochemical, SV40.
The nature of series [2]: In vitro cytotoxic activity. The settings on record: for cytotoxic potency, effect of terminal N^2 substituent (18, 23, 24 compared): natural and unnatural enantiomers; for cytotoxic potency compared with simple derivatives N--BOC-DSA (4) and N--Ac-DSA / more potent cytotoxicity than simple derivatives N--BOC-DSA (4) and N--Ac-DSA: natural enantiomers.

`COC(=O)c1cc2c3c(ccc2[nH]1)N(C(=O)c1cc2c([nH]1)C(=O)C=C1N(C(=O)c4cc5c6c(ccc5[nH]4)N(C(N)=O)CC6)CC4CC124)CC3` (single isomer, unassigned; (+)) [(+)-30]: in series [1], the “AT-rich adenine N3 alkylation selectivity (size of site)” value is 5 base-pair and the “sequence preference at the alkylation site” value (from here on “sequence preference”) is recorded as 5'-AAA>5'-AAT≥5'TAA>5 TAT. Also, the “alkylated adenines within six-base A-rich sequence of w836 DNA” value in the series with w836 DNA is “alkylated those central to the sequence”.

As to `COC(=O)c1cc2c3c(ccc2[nH]1)N(C(=O)c1cc2c4c(ccc2[nH]1)N(C(=O)c1cc2c([nH]1)C(=O)C=C1N(C(=O)OC(C)(C)C)C[C@@H]5C[C@@]125)CC4)CC3` [ent-(-)-CDPI2 -DSA], in series [1], the “AT-rich adenine N3 alkylation selectivity (size of site)” value is 5 base-pair and the “sequence preference” value is given as 5'-AAA>5'-TAA>5'-TTA>5'-ATA. For the same molecule, the “alkylation of individual three-base sequences” value in series [1] (5'-TTA or 5'-ATA) was “under represented alkylation of 5'-ATA”. For the same molecule, the “high affinity alkylation site in w794 DNA” value in the series on w794 DNA was 5'-AATTA.

In the case of `COC(=O)c1cc2cc(NC(=O)c3cc4cc(NC(=O)c5cc6c([nH]5)C(=O)C=C5NCC7CC567)ccc4[nH]3)ccc2[nH]1` (stereo not shown) [compound 24], in series [1], the “DNA alkylation efficiency relative to 18” value is on record as “about an order of magnitude less efficient”, the “comparison of DNA alkylation selectivity” value is “no differences in their DNA alkylation selectivity”, the “less efficient at alkylating DNA than DSA-indole2” value is on record as “ca. 100 ×” and the “slower DNA alkylation than DSA-indole2” value is “ca. 1000 ×”. Besides, in series [1], the “unnatural enantiomer less effective at DNA alkylation than natural enantiomer” value is given as “approximately 10 ×”. Further, the “cytotoxic potency, effect of terminal N^2 substituent (18, 23, 24 compared)” value in series [2] was “noticeably less potent”.

As to `COC(=O)c1cc2cc(NC(=O)c3cc4cc(NC(=O)c5cc6c([nH]5)C(=O)C=C5N(C(C)=O)CC7CC567)ccc4[nH]3)ccc2[nH]1` (stereo not shown) [compound 23, N-{2-[N-(2-Methoxycarbonyl-1H-indol-5-yl)]carbamoyl-1H-indol-5-yl}-2-acetyl-1,2,8,8a-tetrahydrocyclopropa[c]pyrrolo[3,2-e]indole4-one-6-carboxamide], in series [1], the “comparison of DNA alkylation selectivity” value was “no differences in their DNA alkylation selectivity”, the “less efficient at alkylating DNA than DSA-indole2” value is on record as “ca. 100 ×”, the “more efficient DNA alkylation than the BOC derivative 18” value was 2-5 × and the “slower DNA alkylation than DSA-indole2” value is given as “ca. 1000 ×”. Further, the “unnatural enantiomer less effective at DNA alkylation than natural enantiomer” value in series [1] is “approximately 10 ×”. Moreover, in series [2], the “cytotoxic potency, effect of terminal N^2 substituent (18, 23, 24 compared)” value was “essentially indistinguishable”; the “cytotoxic potency compared with simple derivatives N--BOC-DSA (4) and N--Ac-DSA” value is on record as “essentially indistinguishable”.

Take `COC(=O)c1cc2c([nH]1)C(=O)C=C1N(C(=O)c3cc4ccc(OC)cc4[nH]3)CC3CC123` (single isomer, unassigned) [compound 55, Methyl 2-[(6-Methoxyindol-2-yl)carbonyl]-1,2,8,8a-tetrahydrocyclopropa[c]-pyrrolo[3,2-e]indol-4-one-6-carboxylate]: the “less efficient DNA alkylation than 1” value with w794 DNA is listed as 5-10 ×.

With `COC(=O)c1cc2c3c(ccc2[nH]1)N(C(=O)c1cc2c([nH]1)C(=O)C=C1N(C(=O)c4cc5c6c(ccc5[nH]4)N(C(N)=O)CC6)CC4CC124)CC3` (single isomer, unassigned) [ent-(-)-30], the “sequence preference” value in series [1] was 5'-AAA>5'-AAT≥5'TAA>5 TAT. The “alkylated adenines within six-base A-rich sequence of w836 DNA” value in the series with w836 DNA is “alkylated those central to the sequence”.

As for `COC(=O)c1cc2c([nH]1)C(=O)C=C1N(C(=O)c3cc4c5c(ccc4[nH]3)N(C(N)=O)CC5)CC3CC123` (single isomer, unassigned; (+)) [(+)-DSA-CDPI1], in the series with w794 DNA, the “alkylation of the minor w794 site (5'-CAAAG)” value is “prominently alkylates” and the “concentration required at minor site (5'-CAAAG) relative to major 5'-AATTA site” value is 10 x.

Take `COC(=O)c1cc2cc(NC(=O)c3cc4c([nH]3)C(=O)C=C3N(C(=O)OC(C)(C)C)CC5CC345)ccc2[nH]1` (stereo not shown) [compound 17, N-(Methyl 1H-Indol-5-yl-2-carboxylate)-2-((tert-butyloxy)carbonyl)-1,2,8,8a-tetrahydrocyclopropa[c]pyrrolo[3,2-e]indol-4-one-7-carboxamide]: the “AT-rich adenine N3 alkylation selectivity (size of site)” value in series [1] is listed as 3.5 base-pair. Further, in series [2], the “cytotoxic potency compared with simple derivatives N--BOC-DSA (4) and N--Ac-DSA” value is recorded as “essentially indistinguishable”.

`COC(=O)c1cc2c3c(ccc2[nH]1)N(C(=O)c1cc2c([nH]1)C(=O)C=C1N(C(=O)OC(C)(C)C)CC4CC124)CC3` (stereo not shown) [compound 19, 6-[(Methyl 1,2-Dihydro-3H-pyrrolo[3,2-e]indole-3-yl)carbonyl-7-carboxylate]-2-((tert-butyloxy)carbonyl)-1,2,8,8a-tetrahydrocyclopropa[c]-pyrrolo[3,2-e]indol-4-one]: the “AT-rich adenine N3 alkylation selectivity (size of site)” value in series [1] is on record as 3.5 base-pair. Besides, the “more potent cytotoxicity than simple derivatives N--BOC-DSA (4) and N--Ac-DSA” value in series [2] is “less than 10 ×”.

`COC(=O)c1cc2c3c(ccc2[nH]1)N(C(=O)c1cc2c4c(ccc2[nH]1)N(C(=O)c1cc2c([nH]1)C(=O)C=C1N(C(=O)OC(C)(C)C)CC5CC125)CC4)CC3` (stereo not shown) [compound 20, 6-[7-[Methyl 1,2-Dihydro-(3H-pyrrolo[3,2-e]indole-3-yl)carbonyl-7-carboxylate]1,2-dihydro-(3H-pyrrolo[3,2-e]indole-3-yl)carbonyl]-2-((tert-butyloxy)carbonyl)-1,2,8,8a-tetrahydrocyclopropa[c]pyrrolo[3,2-e]indol-4-one]: the “alkylated adenines within six-base A-rich sequence of w836 DNA” value with w836 DNA is listed as “the natural enantiomer of 20 alkylated the same sites as ent-(-)-DSA-CDPI2 while the unnatural enantiomer of 20 alkylated the same sites as the natural enantiomer (+)-DSA-CDPI2”. Besides, the “time required to reach a detectable and diminished level of DNA alkylation” value in the series on w836 DNA (5×10^-6 M agent (so in the source), 25° C., both enantiomers) is on record as 72 h. For the same molecule, the “more potent cytotoxicity than simple derivatives N--BOC-DSA (4) and N--Ac-DSA” value in series [2] is given as “less than 10 ×”. In series [2] (natural versus unnatural enantiomer), the “cytotoxic potency of the two enantiomers compared” value is recorded as “nearly equipotent”.

For `COc1c(O)c2c(c3cc(C(=O)N4CCc5c4c(O)c(OC)c4[nH]c(C(=O)N6CC7CC78C6=CC(=O)c6[nH]cc(C)c68)cc54)[nH]c13)CCN2C(N)=O` (stereo not drawn) [ent-(-)-CC-1065, reference compound], in series [1], the “AT-rich adenine N3 alkylation selectivity (size of site)” value came out at 5 base-pair. Moreover, the “high affinity alkylation site in w794 DNA” value with w794 DNA was 5'-AATTT.

Turning to `COC(=O)c1cc2c([nH]1)C(=O)C=C1N(C(=O)c3cc4cccc(OC)c4[nH]3)CC3CC123` (single isomer, unassigned) [compound 56, Methyl 2-[(7-Methoxyindol-2-yl)carbonyl]-1,2,8,8a-tetrahydrocyclopropa[c]pyrrolo[3,2-e]indol-4-one-6-carboxylate], in the series on w794 DNA, the “less efficient DNA alkylation than 1” value is listed as 5-10 ×.

Consider `COC(=O)c1cc2c3c(ccc2[nH]1)N(C(=O)c1cc2c4c(ccc2[nH]1)N(C(=O)c1cc2c([nH]1)C(=O)C=C1N(C(=O)OC(C)(C)C)C[C@H]5C[C@]125)CC4)CC3` [(+)-CDPI2 -DSA], for which, in series [1], the “AT-rich adenine N3 alkylation selectivity (size of site)” value was found to be 5 base-pair and the “sequence preference” value is recorded as 5'-AAA>5'-AAT≥5'-TAA>5'-TAT. For the same molecule, in the series on w794 DNA, the “alkylation at the natural-enantiomer high affinity site (5'-AATTA)” value is recorded as “without detectable alkylation” and the “high affinity alkylation site in w794 DNA” value is listed as 5'-AATTT.

Take `COC(=O)c1cc2c3c(ccc2[nH]1)N(C(=O)c1cc2c([nH]1)C(=O)C=C1N(C(=O)c4cc5c6c(ccc5[nH]4)N(C(N)=O)CC6)CC4CC124)CC3` (stereo not shown) [compound 30]: the “AT-rich adenine N3 alkylation selectivity (size of site)” value in series [1] was 5 base-pair. Also, in the series on w836 DNA (5×10^-6 M agent (so in the source), 25° C., w836 5'-AAAAAA), the “time after which extensive DNA alkylation is exhibited” value fell in the range of 1 to 5 min. Also, in series [2], the “cytotoxic potency compared with typical agents” value is “essentially equipotent with the typical agents”.
